# Test results from patent US20220249599A1, “TREATMENT OF IMPLANTS WITH ENGINEERED ANTIMICROBIAL AMPHIPHILIC PEPTIDES” (priority 2018, published 2022).
# Ends that are not written are not given here.
# Assays:
# [1] = system: P. aeruginosa strains (PAO1 and 2 clinical isolates); format: cell-based; settings: three P. aeruginosa strains, 0.5×MIC exposure
# Excerpt: Each antibiotic was compared for their propensity to select for bacterial resistance phenotypes in vitro.
# [2] = system: Acinetobacter baumannii ATCC BAA-1797 (MDR); assay: microbe, parasite or virus in culture; format: cell-based; settings: ATCC BAA-1797
# Experimental: (§1) Each peptide was formulated in PBS buffer prior to testing. Peptides of SEQ ID NO:5 and SEQ ID NO:8 were brought up in 100% DMSO with 0.002% polysorbate-80 at 1.28 mg/mL (40× the highest final test concentration of 32 mcg/mL). Final test concentration of DMSO was 2.5% in the assay at the first dilution for those two compounds.
# (§2) Mueller Hinton II broth (MHB II; BD; Lot Nos. 6258541 and 7143896) was used for MIC testing of aerobic organisms. 0.002% polysorbate 80 (P80) was added to the test medium.
# (§3) MIC values were determined using a broth microdilution procedure described by CLSI (1, 3). Automated liquid handlers (Multidrop 384, Labsystems, Helsinki, Finland; Biomek 2000 and Biomek FX, Beckman Coulter, Fullerton Calif.) were used to conduct serial dilutions and liquid transfers.
# (§4) To prepare the drug mother plates, which would provide the serial peptide dilutions for the replicate daughter plates, the wells of columns 2-12 of standard 96-well microdilution plates (Costar 3795) were filled with 150 µl of the designated diluent for each row of peptide.
# (§5) The test articles and comparator compounds ([…] at 40× the highest concentration to be tested) were dispensed into the appropriate wells in column 1. The Biomek 2000 was then used to make 2-fold serial dilutions in the mother plates from column 1 through column 11. The wells of Column 12 contained no drug and served as the organism growth control wells for the assay.
# (§6) The daughter plates were loaded with 185 μL per well of MHB II using the Multidrop 384. The daughter plates were completed on the Biomek FX instrument which transferred 5 uL of peptide solution from each well of a mother plate to the corresponding well of each daughter plate in a single step. A standardized inoculum of each test organism was prepared per CLSI methods. The inoculum for each organism was dispensed into sterile reservoirs divided by length (Beckman Coulter), and the Biomek 2000 was used to inoculate the plates. Daughter plates were placed on the Biomek 2000 work surface in reverse orientation so that inoculation took place from low to high drug concentration.
# (§7) Plates were stacked 3-4 high, covered with a lid on the top plate, placed in plastic bags, and incubated at 35° C. for 16 to 20 hrs. Following incubation, the microplates were removed from the incubator and viewed from the bottom using a plate viewer. […] The MIC was read and recorded as the lowest concentration of peptide that inhibited visible growth of the organism.
# [3] = system: Staphylococcus aureus ATCC 29213 (MSSA; QC); format: cell-based; settings: ATCC 29213
# Experimental: as §1, §2, §3, §4, §5, §6, §7
# [4] = system: Enterococcus faecium ATCC 51559 (VRE); format: cell-based; settings: ATCC 51559
# Experimental: as §1, §2, §3, §4, §5, §6, §7
# [5] = system: Pseudomonas aeruginosa ATCC 27853 (non-MDR; QC); format: cell-based; settings: ATCC 27853
# Experimental: as §1, §2, §3, §4, §5, §6, §7
# [6] = system: Klebsiella pneumoniae ATCC BAA-1705 (KPC); format: cell-based; settings: ATCC BAA-1705
# Experimental: as §1, §2, §3, §4, §5, §6, §7
# [7] = system: Escherichia coli ATCC BAA-2471 (NDM-1); format: cell-based; settings: ATCC BAA-2471
# Experimental: as §1, §2, §3, §4, §5, §6, §7
# [8] = system: Staphylococcus aureus NRS382 (USA100; HA-MRSA); format: cell-based; settings: USA100
# Experimental: as §1, §2, §3, §4, §5, §6, §7
# [9] = system: Pseudomonas aeruginosa ATCC BAA-2109 (MDR); format: cell-based; settings: ATCC BAA-2109
# Experimental: as §1, §2, §3, §4, §5, §6, §7
# [10] = system: Enterococcus faecalis ATCC 29212 (VSE; QC); format: cell-based; settings: ATCC 29212
# Experimental: as §1, §2, §3, §4, §5, §6, §7
# [11] = system: Streptococcus pyogenes ATCC 49399; format: cell-based; settings: ATCC 49399
# Experimental: as §1, §2, §3, §4, §5, §6, §7
# [12] = system: Streptococcus pneumoniae ATCC 49619 (QC); format: cell-based; settings: ATCC 49619
# Experimental: as §1, §2, §3, §4, §5, §6, §7
# [13] = system: Enterococcus faecalis ATCC 700802 (V583 VRE); format: cell-based; settings: ATCC 700802
# Experimental: as §1, §2, §3, §4, §5, §6, §7
# [14] = system: Escherichia coli ATCC 35218 (ESBL); format: cell-based; settings: ATCC 35218
# Experimental: as §1, §2, §3, §4, §5, §6, §7
# [15] = system: Escherichia coli ATCC 25922 (QC); format: cell-based; settings: ATCC 25922
# Experimental: as §1, §2, §3, §4, §5, §6, §7
# [16] = system: Staphylococcus aureus ATCC 43300 (MRSA); format: cell-based; settings: ATCC 43300
# Experimental: as §1, §2, §3, §4, §5, §6, §7
# [17] = system: Acinetobacter baumannii ATCC 19606 (non-MDR); format: cell-based; settings: ATCC 19606
# Experimental: as §1, §2, §3, §4, §5, §6, §7
# [18] = system: S. aureus; assay: Periprosthetic joint infection mouse model, implant biofilm CFU burden; format: in vivo; settings: intraperitoneal delivery, versus untreated control mice
# Experimental: Periprosthetic joint infection was modeled in a mouse by placing an intra-articular K-wire through the medullary canal of the proximal femur followed by intra-articular inoculation with S. aureus. Animals were treated systemically with an intraperitoneal delivery of cefazolin, rifampin, or the exemplary peptide of SEQ ID NO:1. Intraperitoneal delivery was chosen due to technical difficulties associated with intravenous delivery. Implant sonication and proximal femur homogenate were used to quantify viable bacteria.
Compound,Time to development of resistance (fold MIC>10) [1],MIC [2],MIC [3],MIC [4],MIC [5],MIC [6],MIC [7],MIC [8],MIC [9],MIC [10],MIC [11],MIC [12],MIC [13],MIC [14],MIC [15],MIC [16],MIC [17],Reduction of implant biofilm CFU burden (sonicate culture) [18]
LL-37 [LL37],9 days,–,–,–,–,–,–,–,–,–,–,–,–,–,–,–,–,–
VVRVVRVVVRVVRVVVRVVRV [SEQ ID NO: 8],–,>32 µg/mL,>32 µg/mL,0.25 µg/mL,>32 µg/mL,>32 µg/mL,>32 µg/mL,>32 µg/mL,16 µg/mL,4 µg/mL,16 µg/mL,>32 µg/mL,4 µg/mL,>32 µg/mL,>32 µg/mL,32 µg/mL,32 µg/mL,–
CO[C@H]1/C=C/O[C@@]2(C)Oc3c(C)c(O)c4c(O)c(c(/C=N/N5CCN(C)CC5)c(O)c4c3C2=O)NC(=O)/C(C)=C\C=C\[C@H](C)[C@H](O)[C@@H](C)[C@@H](O)[C@@H](C)[C@H](OC(C)=O)[C@@H]1C [Rifampin],≤ 3 days,–,–,–,–,–,–,–,–,–,–,–,–,–,–,–,–,comparable reduction in biofilms sonicate as compared to SEQ ID NO:1
IRRIIRRIRRIIRRIRRIIRR [SEQ ID NO: 4],–,8 µg/mL,8 µg/mL,4 µg/mL,8 µg/mL,32 µg/mL,4 µg/mL,4 µg/mL,4 µg/mL,8 µg/mL,16 µg/mL,16 µg/mL,8 µg/mL,8 µg/mL,4 µg/mL,4 µg/mL,8 µg/mL,–
VWRWVRRVWRWVRRVWRWVRR [SEQ ID NO: 5],–,32 µg/mL,16 µg/mL,8 µg/mL,>32 µg/mL,>32 µg/mL,32 µg/mL,8 µg/mL,16 µg/mL,16 µg/mL,32 µg/mL,32 µg/mL,16 µg/mL,16 µg/mL,16 µg/mL,8 µg/mL,16 µg/mL,–
VWRWVRRVWRWVRR [SEQ ID NO: 6],–,0.5 µg/mL,0.5 µg/mL,0.5 µg/mL,16 µg/mL,4 µg/mL,1 µg/mL,0.5 µg/mL,8 µg/mL,2 µg/mL,4 µg/mL,8 µg/mL,4 µg/mL,1 µg/mL,2 µg/mL,0.5 µg/mL,0.5 µg/mL,–
IRRRIRRIRRRIRRIRRRIRR [SEQ ID NO: 3],–,16 µg/mL,8 µg/mL,4 µg/mL,4 µg/mL,32 µg/mL,4 µg/mL,8 µg/mL,2 µg/mL,32 µg/mL,16 µg/mL,32 µg/mL,>32 µg/mL,4 µg/mL,4 µg/mL,8 µg/mL,8 µg/mL,–
